Data as given in patent US8975015B2, “Antimicrobial compounds” (priority 2009, dated 2015).
≈ marks a conversion by molar mass, not a printed value.

Key:
Experiment in all cases: microbe, parasite or virus in culture
[1] = tested on: Mycobacterium tuberculosis (replicating TB); type: cell-based
[2] = tested on: non-replicating TB; type: cell-based, Mycobacterium tuberculosis
[3] = tested on: strains of TB that are resistant to Rifampin; type: cell-based; conditions: Mycobacterium tuberculosis
[4] = tested on: strains of TB that are resistant to Isoniazid; type: cell-based; conditions: Mycobacterium tuberculosis
[5] = tested on: strains of TB that are resistant to Kanamycin; type: cell-based; conditions: Mycobacterium tuberculosis

How did the “MIC MABA” value [1] turn out when `O=C1C=Cc2nocc2/C1=C1/Nc2ccccc2C1=O` [Example P1, 4-(3-oxoindolin-2-ylidene)benzo[c]isoxazol-5(4H)-one] was run?
The value was 0.15 µg/mL (≈ 0.568 µM).

What about the “MIC LORA” value [2] of the same compound?
The value was 1.833 µg/mL (≈ 6.94 µM).

What about the MIC [3] of the same compound?
The MIC was 0.239 µg/mL (≈ 0.904 µM).

What about the MIC [4] of the same compound?
Its MIC is 0.138 µg/mL (≈ 0.522 µM).

And the MIC [5]?
Its MIC is 0.148 µg/mL (≈ 0.56 µM).
